Test results from PubChem BioAssay AID1508591.

conditions: rat; liver microsomes; pH 7.4; 15.0 min; 1.0 µM

SMILES	half-life
COC(=O)CNC(=O)c1nc(-c2ccc(F)cc2)c2ccccn12	0.91 min
Cc1ccc(S(=O)(=O)Nc2cc(Br)ccc2C(=O)Nc2nc(-c3ccccc3)cs2)cc1	9.6 min
COc1c(Cl)cc2c([nH]c3cnccc32)c1NC(=O)c1cccnc1C	> 30 min
Cc1csc2c1c(=O)n(O)c(=O)n2Cc1ccccc1	> 30 min
Cc1ccccc1CSc1nc2ncc(Br)cc2[nH]1	7 min
CCS(=O)(=O)N1CC(CC#N)(n2cc(-c3ncnc4[nH]ccc34)cn2)C1	> 30 min
COc1cccc(C(=O)Nc2nc(-c3nnn(-c4ccccc4C(F)(F)F)c3C)ns2)c1	> 30 min
c1c[nH]c(C2CCN(c3ncc(-c4ccc5c(c4)OCCCO5)s3)CC2)n1	4.29 min
COc1cccc(CN2CCNc3cc(Nc4ccccc4)ncc3C2)c1	1.58 min
O=C1CCCC2=C1C(c1[nH]ncc1Cl)N=C(Nc1nc3c(Cl)cccc3o1)N2 (stereo unspecified)	3.4 min
C[C@@H]1CN(CC(=O)N2CC(C)(C)c3ncc(Cc4ccc(F)cc4)cc32)[C@@H](CN2CCOC[C@H]2C)CN1	7.57 min
COc1ccc(-n2nc(C)c([C@@H]3C=C[C@@H](NCc4ccc(F)cc4)C3)c2C)cc1	6.66 min
O=C(NC1CCCc2c1cnn2-c1cccc(O)c1)c1ccccn1 (stereo unspecified)	11.9 min
CCOc1ccccc1N1CC(c2nc3ccccc3n2CCOc2ccc(C(C)(C)C)cc2)CC1=O (stereo unspecified)	2.34 min
Cc1ccc(C(=O)NC2CCN(c3cnn(CC4CC4)c(=O)c3)CC2)cc1C	16.3 min
Cc1ccc(-c2nc3ccccc3o2)cc1NC(=O)COc1ccccc1	3.5 min
COc1ccc(C(=O)NC2CCCc3c2[nH]c2ccccc32)cc1OC (stereo unspecified)	24.6 min
CC(O)(C#Cc1ccc2c(c1)N(c1nc(N)ncc1Cl)CC2)c1nccs1 (stereo unspecified)	7.75 min
COc1cccc(-c2cn3c(n2)sc2cc(C(=O)NCCc4ccc(OC)c(OC)c4)ccc23)c1	2.26 min
COc1cccc(Cn2c(=O)n(-c3cccc(Cl)c3C)c(=O)c3c4c(sc32)CN(C(C)=O)CC4)c1	3.17 min
O=C(Nc1ncc(Cc2ccc(C(F)(F)F)cc2)s1)c1cnc(-c2ccccc2)[nH]1	> 30 min
O=C(O)c1cn(C2CC2)c2cc(N3C[C@@H]4C[C@H]3CN4)c(F)cc2c1=O	> 30 min
COc1ccc(-n2nc(C3CCCN(C(=O)c4ccc(C)cc4)C3)[nH]c2=O)cc1 (stereo unspecified)	23.9 min
Cc1ccc(S(=O)(=O)Nc2ccccc2CNc2nc(-c3ccccc3)cs2)cc1	1.6 min
O=C([C@@H]1CCCN(c2ccc3[nH]c(C4(n5cc(Cl)cn5)CC4)nc3n2)C1)N1CCCC1	> 30 min
Cc1ccc(S(=O)(=O)Nc2cc(C)ccc2C(=O)Nc2nc(-c3ccccc3)cs2)cc1	2.5 min

SMILES	half-life
Cc1cccc(-n2cnc3cc(C(=O)N4CCCCC4)ccc32)c1	5.85 min
CCN(CCCOc1ccc2c(Nc3cc(CC(=O)Nc4cccc(F)c4)[nH]n3)ncnc2c1)CCOP(=O)(O)O	> 30 min
CC(=O)OC[C@]12CCC(C)=C[C@H]1O[C@@H]1[C@H](O)[C@@H](OC(C)=O)[C@@]2(C)[C@]12CO2	> 30 min
O=C(NCCCn1ccnc1)c1nc(-c2ccccc2)cc2[nH]ccc12	> 30 min
COc1ccc2cc1Oc1ccc(cc1)C[C@@H]1c3c(cc(OC)c4c3Oc3cc5c(cc3O4)CCN[C@H]5C2)CCN1C	> 30 min
COc1ccnc(NC(=S)N2CCN(c3ncc(C(F)(F)F)cc3Cl)CC2)c1	> 30 min
COc1ccc(NC(=O)c2c(C)cccc2C)cc1[S+](=O)([O-])N1CCCCC1	4.2 min
O=C(CCCN1CCC2(CC1)C(=O)N(Cc1cccc(F)c1)CN2c1ccccc1)c1ccc(F)cc1	1.65 min
Cc1ccccc1C(=O)n1ccc2cc(-c3nc(NC(=O)Cc4ccc5c(c4)OCO5)sc3C)ccc21	> 30 min
Fc1ccc(Cc2nc3nccc(-c4cccs4)n3n2)cc1	2.95 min
COCCNc1ncnc2onc(-c3ccc(F)cc3)c12	> 30 min
COc1ncccc1-c1cc2c(ccn2C(C)C)c(C(=O)NCc2c(C)cc(C)[nH]c2=O)n1	5.49 min
COc1cncc(Nc2ncc(-c3cccc(N(C)C)c3)c3c2OCC3)c1	11.7 min
Cc1cccc(N2CCN(c3nc4ccccc4c4nnc(C)n34)CC2)c1C	17.6 min
C/C=C1/CN2CC[C@@]34c5ccccc5N(C)[C@@H]3[C@@H]2C[C@@H]1[C@H]4C(=O)OC	4.13 min
COc1ccc(C2Nc3ccccc3C(=O)N2Cc2cccnc2)cc1COc1c(C)cc(NC(C)=O)cc1C (stereo unspecified)	1.8 min
Cc1ccc(S(=O)(=O)Nc2cnccc2C(=O)Nc2ccc(-c3nc4ccccc4[nH]3)cc2)cc1	14 min
CS(=O)(=O)c1ccc(-c2csc(N3CCC(C(N)=O)CC3)n2)cc1	> 30 min
CC[C@@H](CO)NC(=O)[C@@H]1C=C2c3cccc4c3c(cn4C)C[C@H]2N(C)C1	> 30 min
CCOc1ccc(CCNC(=O)c2cc3ccccc3n2C)cc1OCC	1.38 min
COc1cc(Cl)c(C)cc1NS(=O)(=O)c1c(C)nc2sccn2c1=O	1.53 min
c1ccc(C2=Nn3c(nnc3-c3ccncc3)SC2)cc1	9.1 min
COc1ccc2[nH]c(C[C@@H]3C[C@@H](C(C)C)[C@H](CNCc4ccccc4O)C=C3C)nc2n1	1.85 min
CCN(CC)S(=O)(=O)c1ccc(N2CCCC2)c(NS(=O)(=O)c2ccc(C)cc2)c1	1.17 min
O=C(N[C@@H](Cc1ccccc1)C(=O)CCl)OCc1ccccc1	14 min
COc1ccc2[nH]c3c(c2c1)CCNC31CCN(S(=O)(=O)c2c(C)noc2C)CC1	> 30 min

SMILES	half-life
O=C(CNC(=O)c1cnccn1)NC1CCCc2c1[nH]c1ccc(Cl)cc21 (stereo unspecified)	> 30 min
Cc1cccc(-n2ncc3c2CCCC3NC(=O)c2c(F)ccc(F)c2F)c1C (stereo unspecified)	0.96 min
CCOC(=O)c1ccc(NC(=O)c2sc3nc4c(cc3c2N)N2CCC4CC2)cc1	1.21 min
Fc1cnc(-c2ccccc2C(F)F)nc1NCc1ccc(-n2ccnn2)cc1	21 min
COc1ccc2[nH]c(S(=O)Cc3ncc(C)c(OC)c3C)nc2n1 (stereo unspecified)	19.2 min
O=C(NCc1ccccc1)c1cn2cc(-c3ccccc3)sc2n1	24 min
CC(C)=CCNc1ncnc2nc[nH]c12	> 30 min
Cc1cc(SCc2sc(-c3ccc(C(F)(F)F)c(F)c3)nc2C)ccc1OCC(=O)O	21 min
Cc1ccnc(NC(=S)N2CCCC(Nc3cccc(C(F)(F)F)c3)C2)c1 (stereo unspecified)	11 min
Cc1cccc(-c2noc([C@@H]3Cc4nc[nH]c4CN3)n2)c1	> 30 min
O=C(O)c1ccc(Nc2nc(-c3cc4ccccc4oc3=O)cs2)cc1O	> 30 min
COc1ccc2c(c1)N(C[C@H](C)CN(C)C)c1ccccc1S2	2.07 min
NC(=O)C1CCN(c2ncc(-c3ccc4c(c3)OCO4)s2)CC1	7.65 min
Cc1ccc(-n2c(=O)c3oc4ccccc4c3n(CC(=O)Nc3ccc(F)c(Cl)c3)c2=O)cc1C	29.6 min
COc1ccc(-n2cnc3cc(C(=O)N4CCCCC4)ccc32)cc1	20.7 min
Cc1cc(Cl)ccc1COc1ccnn1-c1cc(C(=O)O)ccn1	> 30 min
CC(C)C[C@H](NC(=O)[C@H](CCc1ccccc1)NC(=O)CN1CCOCC1)C(=O)N[C@@H](Cc1ccccc1)C(=O)N[C@@H](CC(C)C)C(=O)[C@@]1(C)CO1	3.52 min
CN(C)c1cc(-c2nc(Nc3ccc(F)c(F)c3)c3ccccc3n2)ccn1	13 min
COc1ccc(CNc2ccc(S(=O)(=O)Nc3nccs3)cc2)cc1O	> 30 min
Cc1ccc(OCCn2c(CCNC(=O)c3ccccc3Br)nc3ccccc32)cc1	1.6 min
Fc1ccc(Nc2nc(-c3ccncc3)cc3ccccc23)cc1F	24 min
Cc1cnc(-c2ccccc2C(C)C)nc1NCC1CCN(c2cccnc2)C1 (stereo unspecified)	2.87 min
CCOC(=O)c1nn(-c2ccc(OC)cc2)c(=O)c2c(N)scc12	9.52 min
CCOC(=O)C1CCN(C(=O)C(C)(C)NC(=O)Nc2ccc(Cl)cc2Cl)CC1	1.36 min
CN(C)CCNC(=O)c1nc2nc(-c3ccccc3)c(-c3cccc(F)c3)cc2n1C	> 30 min
CC(C)(O)C=CC(=O)[C@](C)(O)[C@H]1[C@H](O)C[C@]2(C)[C@@H]3CC=C4[C@@H](C=C(O)C(=O)C4(C)C)[C@]3(C)C(=O)C[C@@]12C	> 30 min

SMILES	half-life
O=C(NCCO)c1cccc(-c2cc(Nc3ccc(OC(F)(F)F)cc3)ncn2)c1	> 30 min
CC(C)CN(CC(=O)N(CCCN1CCCC1=O)CC(N)=O)C(=O)CNCCc1ccccc1F	> 30 min
O=[N+]([O-])c1ccc(CNc2ccc([S+](=O)([O-])Nc3nccs3)cc2)c(O)c1	13 min
Cc1cccc(OCC(=O)Nc2ccc3nc(Nc4cccc(Cl)c4)cc(C)c3c2)c1	> 30 min
COCCCNC(=O)c1cc2cc(S(=O)(=O)N(C)C)ccc2n1C	25 min
Cc1nn2c(c1-c1ccccc1-c1ccccc1)N(CC1CC1)CCC2	2.78 min
CCOC(=O)N1CCN(Cc2nc3cc(NC(=O)c4ccc(OC)cc4)ccc3n2C(C)C)CC1	26 min
Cc1noc(-c2cn(C3CCN(C(=O)c4ccc(OC(F)(F)F)cc4)CC3)nn2)n1	> 30 min
CCCOc1ccc2nc(NC(=O)OC)[nH]c2c1	> 30 min
Cc1cnc(-c2ccccc2C(C)C)nc1NCC1CCN(C2COC2)CC1	7.7 min
O=C(NCCCO)c1ccc(-c2ncc3cnc(-c4cccc(F)c4)cn23)cc1	> 30 min
CCC[C@H](NC(=O)/C(C#N)=C/c1cccc(Br)n1)c1ccccc1	> 30 min
O=C(Nc1nc(-c2ccccc2)cs1)c1ccccc1-n1cnnn1	> 30 min
Cn1cncc1[C@@](N)(c1ccc(Cl)cc1)c1ccc2c(c1)c(-c1cccc(Cl)c1)cc(=O)n2C	9.54 min
CNc1oc(-c2cccc3ccccc23)nc1C#N	17.7 min
Cn1ccc2c(C(=O)NCc3cccnc3)nc(-c3ccccc3C#N)cc21	5.52 min
CC1=Nc2cc(C(=O)NCCc3ccccc3)ccc2Sc2c(C)ccc(C)c21	1.54 min
CC(Cc1ccc(O)cc1)NCC(O)c1cc(O)cc(O)c1 (stereo unspecified)	> 30 min
Nc1nc2c(s1)C(c1cccc(Cl)c1Cl)CC(=O)N2 (stereo unspecified)	26 min
Cn1c(CN2CCCC2)nc2cc(NC(=O)COc3ccc(Cl)cc3)ccc21	8.4 min
O=C(Nc1cccc(C(F)(F)F)c1)Nc1cc(S(=O)(=O)NC2CC2)ccc1-c1ccsc1	5.65 min
NC(=O)Nc1cc(-c2ccc(CN3CCOCC3)cc2)sc1C(N)=O	> 30 min
COc1ccc(Nc2ncc(C(=O)Nc3cccc(Cl)c3)c3ccccc23)cc1	16.5 min
